According to patent US10918645B2 (LIFEARC, priority 2016, dated 2021):

Columns and labels:
Assay type in all cases: biochemical
JAK2 = JAK2 (Homo sapiens (Human), UniProt O60674); assay: LANCE Kinase Assay (JAK2_IC50 selectivity assay)
Source text: In LANCE® Kinase Assay (JAK2_IC50 selectivity assay): JAK2 (Invitrogen, Cat. No PV4288), ATP (Sigma, Cat. No. A7699-1G), DMSO (Sigma, Cat. No. D2650), DTT (Sigma, Cat. No. 43815), LANCE Ultra ULight™-JAK-1 peptide (Perkin Elmer, Cat. No. TRF0121), LANCE Eu-W1024 Anti-phosphotyrosine (PT66) (Perkin Elmer, Cat. No. AD0069), LANCE™ Detection Buffer (Perkin Elmer, Cat. No. CR97-100), Tofacitinib (PharmaBlock Sciences(Nanjing), Inc, Cat. No. PBN2011586-01); Equipments: Envision (Perkin Elmer), Bravo (Agilent); Consumables: 384 well Intermediate plate (Greiner, Cat. No. 781280), 384 well assay plate (Perkin Elmer, Cat. No. 6007299),
The assay involves two steps, the enzymatic step and the detection step with HTRF reagents. Step 1: During the enzymatic step the substrate-biotin is incubated with the kinase of interest. ATP is added to start the reaction. Step 2: The detection reagent catches the phosphorylated substrate and the resulting TR-FRET is proportional to the phosphorylation level.
Compound Preparation: Dissolve the test compounds into 30 mM DMSO solution and put them in nitrogen hood at room temperature for long term storage; Dilute the 30 mM compound in DMSO with 3-fold factor, total 11 concentrations; Aspirate 1 μl compound and then dilute them in 25 folds with kinase buffer. Mix well and balance 30 minutes at room temperature.
Kinase Reaction: Transfer 2.5 μl compounds in kinase buffer (4×) into assay plate by Agilent Bravo. Spin the plate; Transfer 5 μl enzyme mixture into the assay plate by using Eppendorf electronic multi-channel pipette. Spin the plate; Incubate the assay plate for 20 minutes at room temperature (23° C.); Add 2.5 μl kinase buffer with ATP into the assay plate by using Multidrop. Spin and seal the plate; Incubate the assay plate for 90 minutes at room temperature (23° C.).
Stop Reaction: Transfer 10 μl detection reagent (2 nM LANCE Eu-W1024 Anti-phosphotyrosine) into the assay plate by using Eppendorf electronic multi-channel pipette. Spin and seal the plate; Incubate the assay plate at room temperature (23° C.) for 60 minutes.
Detection and Read: The excitation wavelength is 340 nm, the primary emission wavelength is 615 nm and the secondary emission wavelength is 665 nm (for Cryptate and Ulight, respectively). Read the plate with EnVision to get the readout of both wavelengths; Calculate the ratio of 665 nm/615 nm.
IC50 estimates were obtained using the software XLfit (IDBS Inc.).

p38aMAPK = p38aMAPK (Homo sapiens (Human), UniProt Q16539); assay: p38aMAPK kinase selectivity assay; conditions: 1 μM inhibitor concentration
Experimental: (§1) SAPK 2a/p38 (5-20 mU diluted in 50 mM Tris pH 7.5, 0.1 mM EGTA, 0.1 mM Na3VO4, 0.1% b-mercaptoethanol, 1 mg/ml BSA) is assayed against MBP in a final volume of 25.5 μl containing 25 mM Tris pH 7.5, 0.1 mM EGTA, 0.33 mg/ml MBP, 10 mM magnesium acetate and 0.05 mM [33P-g-ATP] (50-1000 cpm/pmole) and incubated for 30 min at room temperature. Assays are stopped by addition of 5 μl of 0.5 M (3%) orthophosphoric acid and then harvested onto P81 Unifilter plates with a wash buffer of 50 mM orthophosphoric acid.

MELK = MELK (Homo sapiens (Human), UniProt Q14680); assay: MELK kinase selectivity assay; conditions: 1 μM inhibitor concentration
Experimental: as §1, with “MELK (5-20” for “SAPK 2a/p38 (5-20”, “EGTA,” for “EGTA, 0.1 mM Na3VO4,”, “against a substrate peptide ([…])” for “against MBP”, “containing 50” for “containing 25”, “7.5, 0.05% b-mercaptoethanol, 200 μM substrate peptide,” for “7.5, 0.1 mM EGTA, 0.33 mg/ml MBP,”

MLK3 = MLK3 (Homo sapiens (Human), UniProt Q16584); assay: MLK3 kinase selectivity assay; conditions: 1 μM inhibitor concentration
Experimental: as §1, with “MLK3 (5-20” for “SAPK 2a/p38 (5-20”, “EGTA,” for “EGTA, 0.1 mM Na3VO4,”, “0.1% 0-mercaptoethanol,” for “0.1% b-mercaptoethanol,”, “containing 50” for “containing 25”, “and 0.02” for “and 0.05”, “mM [33P-γ-ATP]” for “mM [33P-g-ATP]”

YES1 = YES1 (Homo sapiens (Human), UniProt P07947); assay: YES1 kinase selectivity assay; conditions: 1 μM inhibitor concentration
Experimental: YES1 (5-20 mU diluted in 50 mM Tris pH 7.5, 0.1 mM EGTA, 1 mg/ml BSA) is assayed against a substrate peptide (Poly Glut Tyr) in a final volume of 25.5 μl containing 50 mM Tris pH 7.5, 1 mg/ml substrate peptide, 10 mM magnesium acetate and 0.02 mM [33P-g-ATP] (50-1000 cpm/pmole) and incubated for 30 min at room temperature. Assays are stopped by addition of 5 μl of 0.5 M (3%) orthophosphoric acid and then harvested onto P81 Unifilter plates with a wash buffer of 50 mM orthophosphoric acid.

Sequence of MELK (Q14680 whole entry, species assumed): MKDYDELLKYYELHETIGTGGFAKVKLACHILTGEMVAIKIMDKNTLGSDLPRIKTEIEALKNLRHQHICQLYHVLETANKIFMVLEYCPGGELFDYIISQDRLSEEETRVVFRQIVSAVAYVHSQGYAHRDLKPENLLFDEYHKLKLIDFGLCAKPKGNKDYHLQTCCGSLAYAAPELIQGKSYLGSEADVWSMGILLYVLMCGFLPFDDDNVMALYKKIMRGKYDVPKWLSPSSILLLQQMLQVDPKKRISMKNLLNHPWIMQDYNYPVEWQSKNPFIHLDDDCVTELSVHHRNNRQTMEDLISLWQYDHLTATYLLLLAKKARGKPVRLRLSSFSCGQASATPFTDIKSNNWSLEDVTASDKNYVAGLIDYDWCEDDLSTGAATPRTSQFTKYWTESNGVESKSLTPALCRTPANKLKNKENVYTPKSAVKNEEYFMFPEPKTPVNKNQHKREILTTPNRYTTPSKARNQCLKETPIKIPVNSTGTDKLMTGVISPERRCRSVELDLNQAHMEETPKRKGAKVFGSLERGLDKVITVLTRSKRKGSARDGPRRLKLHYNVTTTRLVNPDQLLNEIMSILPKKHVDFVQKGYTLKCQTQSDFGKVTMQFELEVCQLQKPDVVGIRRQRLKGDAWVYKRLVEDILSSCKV
Sequence of MLK3 (Q16584 whole entry, species assumed): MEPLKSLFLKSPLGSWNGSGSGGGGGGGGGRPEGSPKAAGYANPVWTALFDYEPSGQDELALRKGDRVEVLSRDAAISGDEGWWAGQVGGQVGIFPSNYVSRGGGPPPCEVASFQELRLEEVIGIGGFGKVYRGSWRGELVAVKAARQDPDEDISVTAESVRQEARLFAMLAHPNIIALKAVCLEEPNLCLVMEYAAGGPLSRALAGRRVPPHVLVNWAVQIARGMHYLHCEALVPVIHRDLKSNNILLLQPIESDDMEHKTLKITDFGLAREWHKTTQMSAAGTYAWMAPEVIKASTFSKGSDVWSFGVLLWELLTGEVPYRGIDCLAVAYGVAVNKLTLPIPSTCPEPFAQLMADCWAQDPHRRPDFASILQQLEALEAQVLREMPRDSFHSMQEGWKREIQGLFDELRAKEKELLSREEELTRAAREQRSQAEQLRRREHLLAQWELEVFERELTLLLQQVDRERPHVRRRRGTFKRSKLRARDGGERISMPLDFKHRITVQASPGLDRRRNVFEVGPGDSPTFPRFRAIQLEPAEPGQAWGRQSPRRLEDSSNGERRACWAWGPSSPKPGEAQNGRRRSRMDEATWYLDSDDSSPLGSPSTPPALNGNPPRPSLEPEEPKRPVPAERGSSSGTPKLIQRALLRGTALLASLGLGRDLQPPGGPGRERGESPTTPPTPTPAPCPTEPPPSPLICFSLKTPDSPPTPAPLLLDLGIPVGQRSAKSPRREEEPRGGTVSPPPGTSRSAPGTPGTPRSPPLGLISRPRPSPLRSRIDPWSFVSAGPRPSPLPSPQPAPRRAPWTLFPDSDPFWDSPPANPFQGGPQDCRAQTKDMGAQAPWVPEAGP
Sequence of p38aMAPK (Q16539 whole entry): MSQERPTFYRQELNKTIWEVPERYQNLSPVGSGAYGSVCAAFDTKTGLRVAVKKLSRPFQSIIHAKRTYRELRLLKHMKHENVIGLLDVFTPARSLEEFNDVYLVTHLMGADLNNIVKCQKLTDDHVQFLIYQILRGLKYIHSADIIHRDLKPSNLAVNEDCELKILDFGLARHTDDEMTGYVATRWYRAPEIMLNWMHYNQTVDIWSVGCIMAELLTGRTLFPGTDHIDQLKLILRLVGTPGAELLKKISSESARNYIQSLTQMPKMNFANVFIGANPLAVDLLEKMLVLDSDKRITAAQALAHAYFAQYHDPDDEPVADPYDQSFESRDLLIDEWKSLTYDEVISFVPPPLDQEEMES
Sequence of YES1 (P07947 whole entry, species assumed): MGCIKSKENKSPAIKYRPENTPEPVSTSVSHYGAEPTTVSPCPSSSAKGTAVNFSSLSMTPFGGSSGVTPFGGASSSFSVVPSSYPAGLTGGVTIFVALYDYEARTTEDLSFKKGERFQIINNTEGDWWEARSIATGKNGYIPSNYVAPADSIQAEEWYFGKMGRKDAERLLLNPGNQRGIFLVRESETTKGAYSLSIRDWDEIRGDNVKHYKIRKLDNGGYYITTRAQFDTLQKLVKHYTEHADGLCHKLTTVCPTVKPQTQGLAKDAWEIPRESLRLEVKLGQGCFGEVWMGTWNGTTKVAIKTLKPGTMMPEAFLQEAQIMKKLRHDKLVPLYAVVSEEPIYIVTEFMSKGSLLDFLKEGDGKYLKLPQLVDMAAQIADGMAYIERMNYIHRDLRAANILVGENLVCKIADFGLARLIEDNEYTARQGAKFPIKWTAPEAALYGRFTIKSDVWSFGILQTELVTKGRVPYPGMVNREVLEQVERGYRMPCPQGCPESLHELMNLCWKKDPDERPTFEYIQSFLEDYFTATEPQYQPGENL
Sequence of JAK2 (O60674 whole entry): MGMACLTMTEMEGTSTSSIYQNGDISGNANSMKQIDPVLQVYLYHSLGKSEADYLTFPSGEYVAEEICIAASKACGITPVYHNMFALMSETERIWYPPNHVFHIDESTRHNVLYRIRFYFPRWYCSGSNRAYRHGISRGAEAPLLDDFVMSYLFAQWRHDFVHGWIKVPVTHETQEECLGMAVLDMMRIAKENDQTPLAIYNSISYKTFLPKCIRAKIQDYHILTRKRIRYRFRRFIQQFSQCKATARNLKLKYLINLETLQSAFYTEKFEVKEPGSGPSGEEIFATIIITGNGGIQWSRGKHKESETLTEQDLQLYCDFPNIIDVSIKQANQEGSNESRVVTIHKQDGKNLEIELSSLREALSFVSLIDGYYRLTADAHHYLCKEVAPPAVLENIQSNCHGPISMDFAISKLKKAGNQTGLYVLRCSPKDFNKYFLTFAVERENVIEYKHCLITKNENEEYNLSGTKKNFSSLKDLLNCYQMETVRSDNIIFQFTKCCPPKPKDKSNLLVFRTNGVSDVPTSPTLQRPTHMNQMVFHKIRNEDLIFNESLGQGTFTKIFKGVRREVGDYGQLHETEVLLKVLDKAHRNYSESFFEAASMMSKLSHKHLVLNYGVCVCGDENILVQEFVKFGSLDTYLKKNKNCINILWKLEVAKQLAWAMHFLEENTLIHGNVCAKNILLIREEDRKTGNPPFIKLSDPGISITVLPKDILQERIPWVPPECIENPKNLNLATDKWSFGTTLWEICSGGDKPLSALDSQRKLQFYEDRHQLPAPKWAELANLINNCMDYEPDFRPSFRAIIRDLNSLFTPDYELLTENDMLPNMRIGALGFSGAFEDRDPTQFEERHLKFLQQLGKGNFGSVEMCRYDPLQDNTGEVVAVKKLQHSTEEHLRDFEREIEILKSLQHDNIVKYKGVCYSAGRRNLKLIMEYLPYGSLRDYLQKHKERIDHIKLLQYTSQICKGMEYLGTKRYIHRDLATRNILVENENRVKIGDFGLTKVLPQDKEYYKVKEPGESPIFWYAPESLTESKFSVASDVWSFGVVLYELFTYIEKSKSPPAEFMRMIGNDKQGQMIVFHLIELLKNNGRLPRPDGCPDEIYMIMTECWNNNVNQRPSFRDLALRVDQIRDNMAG

SMILES	IC50 (JAK2) [µM]	percentage inhibition of p38aMAPK (p38aMAPK) [percentage]	percentage inhibition of MELK (MELK) [percentage]	percentage inhibition of MLK3 (MLK3) [percentage]	percentage inhibition of YES1 (YES1) [percentage]
c1cc2[nH]nc3c2c(n1)N(C1CCC1)CCC3 [Example 22, 6-cyclobutyl-6,7,8,9-tetrahydro-2H-1,2,5,6-tetraazabenzo[cd]azulene]	8.4	4	10	7	0
c1cc2[nH]nc3c2c(n1)N(C1CCCC1)CCC3 [Example 23, 6-cyclopentyl-6,7,8,9-tetrahydro-2H-1,2,5,6-tetraazabenzo[cd]azulene]		0	1	4	0
c1cc2[nH]nc3c2c(n1)N(C1CCOCC1)CCC3 [Example 29, 6-(tetrahydro-2H-pyran-4-yl)-6,7,8,9-tetrahydro-2H-1,2,5,6-tetraazabenzo[cd]azulene]		0	24	8	0
CN1CCC(N2Cc3ccccc3-c3n[nH]c4ccnc2c34)CC1 [Example 55]		6	78	6	16
CC(C)n1ncc2c1CN(C1CCN(C)CC1)c1nccc3[nH]nc-2c13 [Example 68]	6.3	0	72	4	5
